Measured values published in article PMC10597491 (PLOS ONE, 2023).
pIC50: −log10 of the molar value. Bridge positions count the residues as written; N and C are the ends. Peptide text beside a SMILES is read from it.

Columns and labels:
[1] = target: T1, IL-7R (Homo sapiens, UniProt P16871+P31785); test: STAT5 phosphorylation in TF1-7Rα cells; format: cell-based; conditions: TF1-7Rα cells, 10 μM peptide alone
T1 construct: constructed to express full-length human IL-7Rα in TF-1 cells; TF-1 cells, which naturally express γc, but not IL-7Rα; expressed in transfected cells
T1 sequence (P16871 21-459): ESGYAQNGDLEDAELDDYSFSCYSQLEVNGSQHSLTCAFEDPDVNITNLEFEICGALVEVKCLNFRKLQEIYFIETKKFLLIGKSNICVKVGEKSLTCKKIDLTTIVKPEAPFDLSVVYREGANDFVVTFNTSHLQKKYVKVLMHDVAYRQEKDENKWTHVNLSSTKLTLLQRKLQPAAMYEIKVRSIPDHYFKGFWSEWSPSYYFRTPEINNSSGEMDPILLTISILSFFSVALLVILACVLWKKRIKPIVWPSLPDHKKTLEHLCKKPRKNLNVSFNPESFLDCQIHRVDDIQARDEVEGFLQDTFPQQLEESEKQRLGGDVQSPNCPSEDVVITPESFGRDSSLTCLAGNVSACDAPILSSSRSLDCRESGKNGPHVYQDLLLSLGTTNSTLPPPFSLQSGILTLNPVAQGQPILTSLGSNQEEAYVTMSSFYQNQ
T1 sequence (P31785 23-369): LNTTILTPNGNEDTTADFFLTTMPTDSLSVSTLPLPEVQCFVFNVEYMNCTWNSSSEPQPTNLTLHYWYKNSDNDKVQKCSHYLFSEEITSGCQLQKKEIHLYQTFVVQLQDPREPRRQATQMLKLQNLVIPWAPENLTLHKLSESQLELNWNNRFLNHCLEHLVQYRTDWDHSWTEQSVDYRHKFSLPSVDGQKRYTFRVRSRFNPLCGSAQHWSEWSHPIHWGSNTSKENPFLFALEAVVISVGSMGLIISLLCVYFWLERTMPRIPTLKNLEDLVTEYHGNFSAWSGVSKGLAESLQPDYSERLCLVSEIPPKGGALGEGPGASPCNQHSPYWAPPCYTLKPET
Protocol: The synthetic peptide MDK1472 was designed to bind simultaneously to IL-7Rα and γc subunits and was tested for its ability to induce phosphorylation of STAT5, the primary IL-7R signaling pathway.
Reactions were stopped and cell lysates prepared for pSTAT5 analysis.
(§1) Cells were deprived of growth factors by overnight incubation at 5×10^5 cells/mL in starvation medium (RPMI 1640 + 4.5 g/L glucose + 0.2% FBS + 2 mM L-glutamine + 1 mM NaPyr + 10 mM HEPES + 0.5x penicillin-streptomycin with no cytokine supplement) in T75 flasks. For assays, cells were plated in 96-well V-bottom plates at 2×10^5 cells/well. Three-fold serial dilutions in starvation medium of the test compounds or cytokine were added to the cells and incubated for 30 min at 37°C. Following incubation, cell extracts were prepared by adding a mixture of 10x Cell Lysis Buffer (Cell Signaling Technology Cat# 9803) and 100x HALT Phosphatase and Protease Inhibitor Cocktail (Thermo Fisher Cat# 78442) directly to the wells. The plates were agitated at 25°C for 5 min to prepare cell extracts for immediate use or to be stored at -80°C until assay. Detection of pSTAT5 was performed using a PathScan® Phospho-Stat5 (pTyr694) Sandwich ELISA Kit (Cell Signaling Technology Cat# 7113). Detection of pSTAT6 was performed using a PathScan® Phospho-Stat6 (pTyr641) Sandwich ELISA Kit (Cell Signaling Technology Cat# 7275). Detection of pSTAT3 was performed using a PathScan® Phospho-Stat3 (pTyr705) Sandwich ELISA Kit (Cell Signaling Technology Cat# 7300). Cell lysates were added to pre-coated ELISA wells and incubated at 4°C overnight. Primary and secondary antibody incubations and wash steps were performed according to the protocols supplied by the manufacturer. Assays were developed using TMB substrate (Surmodics Cat# TMBW-1000-01) for 5–10 min at 25°C and the reaction was stopped using STOP solution (Surmodics Cat# LSTP-1000-01).

[2] = target: T2, human γc ECD (Homo sapiens, UniProt P31785); test: Competition binding ELISA, human γc ECD; conditions: immobilized Fc-γc ECD; tracer biotinylated MDK1188 pre-complexed with Neutravidin-HRP; 4°C
T2 construct: human IL-2Rα(aa 23–254)-Fc, Acro Cat# ILG-H5256; purchased Acro ILG-H5256
T2 sequence (P31785 23-254): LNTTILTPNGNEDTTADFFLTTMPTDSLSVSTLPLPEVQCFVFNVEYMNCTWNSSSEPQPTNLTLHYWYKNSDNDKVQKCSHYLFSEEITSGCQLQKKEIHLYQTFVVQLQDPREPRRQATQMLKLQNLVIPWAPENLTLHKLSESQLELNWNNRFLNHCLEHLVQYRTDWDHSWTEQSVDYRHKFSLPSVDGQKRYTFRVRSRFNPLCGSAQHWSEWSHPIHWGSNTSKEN
Description: (§2) (A, B) Determination of IC50 values in a competition ELISA for compound binding to human and cyno IL-7Rα and γc. The assay format is IL-7Rα-(His)6-tagged ECD or Fc-γc ECD immobilized on 96-well plates. Tracers are C-terminal biotinylated forms of the reference IL-7Rα and γc peptide ligands, each pre-complexed with Neutravidin-HRP (NA-HRP). (C, D) Label-free measurement of the equilibrium dissociation constant (KD) for peptide binding to IL-7Rα and γc extracellular domains with peptides was performed by biolayer interferometry as detailed in methods. Red lines depict 1:1 binding fit from Gator™ software. Blue lines represent individual BLI sensogram data taken every 0.1 seconds.
(§3) Binding was determined using a competition binding ELISA. Microtiter plates (Immulon 4HBX flat bottom 96-well) were coated with 50 μL of […] human ECDs: IL-7Rα(aa 21–236)-His6, Sino Biological Cat# 10975-H08H; cynomolgus IL-7Rα(aa 21–235)-His6, Sino Biological Cat# 90332-C08H; human IL-2Rα(aa 23–254)-Fc, Acro Cat# ILG-H5256; cynomolgus IL-2Rα(aa 23–254)-Fc, made in-house, in PBS overnight at 4°C. […] Plates were washed with cold wash buffer, and bound tracer was detected using TMB One Component HRP substrate and Stop Solution (Surmodics Cat# TMBW-1000-01 and LSTP-0100-01). Absorbance at 450 nm was read using Agilent BioTek Synergy HTX Multimode Reader.

[3] = target: T3, IL-2βγc receptor (Homo sapiens, UniProt P31785); test: IL-2-induced pSTAT5 in TF-1 cells expressing IL-2/15Rβ; format: cell-based
T3 construct: pcDNA3.1 expression vector encoding full-length IL-2Rβ, IL-7Rα, IL-9Rα, or IL-21Rα; TF-1 cells naturally express γc and IL-4Rα; expressed in transfected cells
T3 sequence (P31785 23-369): T1 sequence (P31785 23-369)
Protocol: as §1, with “Primary and secondary antibody incubations and wash steps were performed according to the protocols supplied by the manufacturer. Assays were developed using TMB substrate (Surmodics Cat# TMBW-1000-01) for 5–10 min at 25°C and the reaction was stopped using STOP solution (Surmodics Cat# LSTP-1000-01).” left out

[4] = target: T4, human IL-7Rα ECD (Homo sapiens, UniProt P16871); test: Competition binding ELISA, human IL-7Rα ECD; conditions: immobilized IL-7Rα-(His)6 ECD; tracer biotinylated MDK1248 pre-complexed with Neutravidin-HRP; 4°C; valency-sensitive format
T4 construct: IL-7Rα(aa 21–236)-His6, Sino Biological Cat# 10975-H08H; His6 (C); purchased Sino Biological 10975-H08H
T4 sequence (P16871 21-236): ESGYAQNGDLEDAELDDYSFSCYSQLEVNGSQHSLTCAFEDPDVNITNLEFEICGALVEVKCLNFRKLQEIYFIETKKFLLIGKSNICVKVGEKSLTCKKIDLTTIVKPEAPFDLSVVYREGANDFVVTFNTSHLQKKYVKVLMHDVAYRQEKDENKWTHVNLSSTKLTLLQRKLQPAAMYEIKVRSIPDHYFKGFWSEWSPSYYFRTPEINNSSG
Description: as §2, §3

[5] = target: T5, cynomolgus IL-7Rα (Macaca fascicularis, UniProt Q38IC7); test: Competition binding ELISA, cynomolgus IL-7Rα ECD; conditions: immobilized cynomolgus IL-7Rα-His6 ECD; biotinylated peptide/NA-HRP tracer; read-out: Competition ELISA IC50, IL-7Rα Cyno
T5 construct: cynomolgus IL-7Rα(aa 21–235)-His6, Sino Biological Cat# 90332-C08H; His6 (C); purchased Sino Biological 90332-C08H
T5 sequence (Q38IC7 21-235): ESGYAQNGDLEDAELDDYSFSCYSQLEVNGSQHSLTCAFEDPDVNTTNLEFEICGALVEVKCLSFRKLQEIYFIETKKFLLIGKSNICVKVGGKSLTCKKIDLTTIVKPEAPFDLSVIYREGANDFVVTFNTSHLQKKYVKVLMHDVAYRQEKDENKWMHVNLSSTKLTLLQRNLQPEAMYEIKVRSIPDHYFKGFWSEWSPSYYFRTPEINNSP
Description: as §2, §3

Row | SMILES | induction of pSTAT5 by individual peptide ligands [1] | pIC50 [2] | pIC50 [3] | pIC50 [4] | pIC50 [5]
1 | CC(C)C[C@@H]1NC(=O)[C@H](CCC(=O)O)NC(=O)[C@H](C(C)C)NC(=O)CNC(=O)[C@H](CCC(=O)O)NC(=O)[C@H](Cc2c[nH]c3ccccc23)NC(=O)[C@H](CC(=O)O)NC(=O)[C@H](CCC(N)=O)NC(=O)[C@@H](NC(=O)[C@@H](NC(=O)[C@@H](NC(=O)CNC(=O)CN)C(C)C)C(C)C)CSSC[C@@H](C(=O)N[C@@H](Cc2c[nH]c3ccccc23)C(=O)N[C@@H](CCC(N)=O)C(=O)NCC(=O)NCC(=O)O)NC1=O [MDK1188] | no induction of pSTAT5 | 7.62 | 5.80 |  | 
2 | CC[C@H](C)[C@H](NC(=O)CNC(=O)[C@H](Cc1c[nH]c2ccccc12)NC(=O)CN)C(=O)N1CCC[C@H]1C(=O)N[C@@H](Cc1c[nH]c2ccccc12)C(=O)N[C@H]1CSSC[C@@H](C(=O)N[C@@H](C)C(=O)N[C@@H](Cc2c[nH]c3ccccc23)C(=O)N[C@@H](CC(C)C)C(=O)NCC(=O)N[C@@H](CCCCN)C(=O)N[C@@H](Cc2c[nH]cn2)C(=O)NCC(=O)NCC(=O)O)NC(=O)[C@H](CCC(N)=O)NC(=O)[C@H](CC(C)C)NC(=O)[C@H](CO)NC(=O)CNC(=O)[C@@H]2CCCN2C(=O)[C@H](CC(=O)O)NC(=O)[C@H](CC(C)C)NC(=O)[C@H]([C@@H](C)O)NC1=O [MDK1248] (H-GWGIPWCTLDPGSLQCAWLGKHGG-OH; disulfide 7-16) | no induction of pSTAT5 |  |  | 6.82 | 7.04
